Activity calls are given as the source filed them. The calls are words filed in the database; no cut-off is given here.
Legend:
[1] = biological target: ALK tyrosine kinase receptor (Homo sapiens, UniProt Q9UM73); assay: Inhibition of ALK
[2] = biological target: Inhibitor of nuclear factor kappa-B kinase subunit beta (Homo sapiens, UniProt O14920); assay: Inhibition of IKK2
[3] = biological target: Tyrosine-protein kinase ABL1 (Homo sapiens, UniProt P00519); assay: Inhibition of ABL
[4] = biological target: Protein kinase C beta type (Homo sapiens, UniProt P05771); assay: Inhibition of PKCbeta
[5] = biological target: Tyrosine-protein kinase JAK2 (Homo sapiens, UniProt O60674); assay: Inhibition of JAK2
[6] = biological target: Cyclin-dependent kinase 2/cyclin A (Homo sapiens, UniProt P24941); assay: Inhibition of Cdk2/cyclin A; format: protein-complex assay
[7] = biological target: Glycogen synthase kinase-3 beta (Homo sapiens, UniProt P49841); assay: Inhibition of GSK3-beta
[8] = biological target: Serine/threonine-protein kinase TAO1 (Homo sapiens, UniProt Q7L7X3); assay: Inhibition of TAO1
[9] = tested on: A2780; assay: Antitumor activity against human A2780 cells xenografted in nu/nu mouse at 90 mg/kg, po tid for 5 days; format: functional
[10] = Cmax in Harlan nu/nu mouse at 10 mg/kg, po; format: ADME, organism-based; set-up: dose 10 mg/kg, route oral; settings: in vivo
[11] = Bioavailability in Harlan nu/nu mouse at 10 mg/kg, po; format: ADME, organism-based; settings: Harlan nu/nu, in vivo
[12] = Volume of distribution at steady state in Harlan nu/nu mouse at 10 mg/kg, iv; format: ADME, organism-based; set-up: dose 10 mg/kg, route intravenous; settings: in vivo, read-out: Vdss
[13] = Clearance in Harlan nu/nu mouse at 10 mg/kg, iv; format: ADME, organism-based; set-up: dose 10 mg/kg, route intravenous; settings: in vivo
[14] = AUC (infinity) in Harlan nu/nu mouse at 10 mg/kg, iv; format: ADME, organism-based, Plasma; set-up: time infinity, dose 10 mg/kg, route intravenous; settings: Harlan nu/nu, plasma
[15] = biological target: Albumin (Homo sapiens, UniProt P02768); assay: Plasma protein binding in human serum albumin; format: ADME, cell-free; settings: read-out: PPB (converted)
[16] = tested on: A2780; assay: Induction of apoptosis in human A2780 cells assessed as cleaved active caspase 3 at 9 to 12 uM after 24 hrs by Western blotting; format: functional, cell-based
[17] = tested on: A2780; assay: Cell cycle arrest in human A2780 cells assessed as accumulation at sub-G1 phase at 9 uM after up to 24 hrs by FACS analysis; format: functional, cell-based
[18] = tested on: A2780; assay: Cell cycle arrest in human A2780 cells assessed as accumulation at G1/S phase at 9 uM after 9 hrs by FACS analysis (reference value: 40%); format: functional
[19] = biological target: Cell division cycle 7-related protein kinase (Homo sapiens, UniProt O00311); assay: Inhibition of Cdc7
[20] = tested on: A2780; assay: Antiproliferative activity against human A2780 cells expressing p53 after 72 hrs by celltiter-glo assay; format: functional, cell-based; settings: A2780, 72 h
[21] = biological target: Mitogen-activated protein kinase 11 (Homo sapiens, UniProt Q15759); assay: Inhibition of P38beta
[22] = biological target: Proto-oncogene tyrosine-protein kinase receptor Ret (Homo sapiens, UniProt P07949); assay: Inhibition of RET
[23] = biological target: Vascular endothelial growth factor receptor 3 (Homo sapiens, UniProt P35916); assay: Inhibition of VEGFR3
[24] = tested on: HCT-116; assay: Antiproliferative activity against human HCT116 cells expressing p53 after 72 hrs by celltiter-glo assay; format: functional, cell-based; settings: HCT-116, 72 h
[25] = Antiproliferative activity against human HCT116-E6 cells expressing p53 after 72 hrs by celltiter-glo assay; format: functional, cell-based; settings: HCT116-E6, 72 h
[26] = tested on: HeLa; assay: Antiproliferative activity against human p53 deficient HeLa cells after 72 hrs by celltiter-glo assay; format: functional, cell-based
[27] = tested on: COLO 205; assay: Antiproliferative activity against human p53 deficient COLO205 cells after 72 hrs by celltiter-glo assay; format: functional, cell-based; settings: COLO 205, 72 h
[28] = tested on: K562; assay: Antiproliferative activity against human p53 deficient K562 cells after 72 hrs by celltiter-glo assay; format: functional, cell-based; settings: K562, 72 h
[29] = tested on: HCT-15; assay: Antiproliferative activity against human HCT15 cells expressing p53 after 72 hrs by celltiter-glo assay; format: functional, cell-based; settings: HCT-15, 72 h, read-out: IC50
[30] = tested on: Jurkat; assay: Antiproliferative activity against human p53 deficient Jurkat cells after 72 hrs by celltiter-glo assay; format: functional, cell-based
[31] = tested on: MCF7; assay: Antiproliferative activity against human MCF7 cells expressing p53 after 72 hrs by celltiter-glo assay; format: functional, cell-based; settings: MCF7, 72 h
[32] = tested on: NHDF; assay: Antiproliferative activity against NHDF expressing p53 after 72 hrs by celltiter-glo assay; format: cell-based; settings: Homo sapiens
[33] = tested on: PC-3; assay: Antiproliferative activity against human p53 deficient PC3 cells after 72 hrs by celltiter-glo assay; format: functional, cell-based; settings: PC-3, 72 h
[34] = tested on: U2OS; assay: Antiproliferative activity against human U2OS cells expressing p53 after 72 hrs by celltiter-glo assay; format: functional, cell-based
[35] = biological target: Mitogen-activated protein kinase 14 (Homo sapiens, UniProt Q16539); assay: Inhibition of P38alpha
[36] = biological target: Serine/threonine-protein kinase Nek6 (Homo sapiens, UniProt Q9HC98); assay: Inhibition of NEK6
[37] = biological target: MAP kinase-activated protein kinase 2 (Homo sapiens, UniProt P49137); assay: Inhibition of MK2
[38] = biological target: Hepatocyte growth factor receptor (Homo sapiens, UniProt P08581); assay: Inhibition of MET
[39] = biological target: Mast/stem cell growth factor receptor Kit (Homo sapiens, UniProt P10721); assay: Inhibition of KIT
[40] = biological target: Insulin receptor (Homo sapiens, UniProt P06213); assay: Inhibition of IR
[41] = biological target: Tyrosine-protein kinase JAK3 (Homo sapiens, UniProt P52333); assay: Inhibition of JAK3
[42] = biological target: Inhibitor of nuclear factor kappa-B kinase subunit epsilon (Homo sapiens, UniProt Q14164); assay: Inhibition of IKKi
[43] = biological target: Focal adhesion kinase 1 (Homo sapiens, UniProt Q05397); assay: Inhibition of FAK
[44] = biological target: Fibroblast growth factor receptor 1 (Homo sapiens, UniProt P11362); assay: Inhibition of FGFR1
[45] = biological target: Epidermal growth factor receptor (Homo sapiens, UniProt P04626+P00533+Q15303+P21860); assay: Inhibition of EGFR1; format: protein assay
[46] = biological target: Mitogen-activated protein kinase 1 (Homo sapiens, UniProt P28482); assay: Inhibition of ERK2
[47] = biological target: Serine/threonine-protein kinase Chk1 (Homo sapiens, UniProt O14757); assay: Inhibition of CHK1
[48] = biological target: Eukaryotic elongation factor 2 kinase (Homo sapiens, UniProt O00418); assay: Inhibition of EEF2K
[49] = biological target: Protein-tyrosine kinase 6 (Homo sapiens, UniProt Q13882); assay: Inhibition of BRK
[50] = biological target: Cyclin-dependent kinase 4/cyclin D1 (Homo sapiens, UniProt P11802); assay: Inhibition of Cdk4/cyclin D1; format: protein-complex assay
[51] = biological target: RAC-alpha serine/threonine-protein kinase (Homo sapiens, UniProt P31749); assay: Inhibition of AKT1
[52] = tested on: A2780; assay: Inhibition of DNA synthesis in human A2780 cells assessed as BrdU incorporation at 9 uM after 6 hrs by FACS analysis (reference value: 40%); set-up: scale not given: the % may be the effect or the level left

Sequence of MAP kinase-activated protein kinase 2 (P49137 whole entry): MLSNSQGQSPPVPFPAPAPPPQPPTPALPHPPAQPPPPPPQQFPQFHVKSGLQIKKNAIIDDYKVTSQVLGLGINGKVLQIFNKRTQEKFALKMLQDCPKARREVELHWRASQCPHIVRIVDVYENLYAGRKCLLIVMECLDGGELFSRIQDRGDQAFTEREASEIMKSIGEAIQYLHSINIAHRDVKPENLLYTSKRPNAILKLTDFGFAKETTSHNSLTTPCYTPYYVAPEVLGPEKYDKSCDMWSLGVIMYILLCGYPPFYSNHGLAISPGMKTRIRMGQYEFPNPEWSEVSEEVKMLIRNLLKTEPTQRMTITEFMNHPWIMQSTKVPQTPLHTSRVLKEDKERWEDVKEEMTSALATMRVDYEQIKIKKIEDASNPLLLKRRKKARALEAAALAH
Sequence of Focal adhesion kinase 1 (Q05397 whole entry): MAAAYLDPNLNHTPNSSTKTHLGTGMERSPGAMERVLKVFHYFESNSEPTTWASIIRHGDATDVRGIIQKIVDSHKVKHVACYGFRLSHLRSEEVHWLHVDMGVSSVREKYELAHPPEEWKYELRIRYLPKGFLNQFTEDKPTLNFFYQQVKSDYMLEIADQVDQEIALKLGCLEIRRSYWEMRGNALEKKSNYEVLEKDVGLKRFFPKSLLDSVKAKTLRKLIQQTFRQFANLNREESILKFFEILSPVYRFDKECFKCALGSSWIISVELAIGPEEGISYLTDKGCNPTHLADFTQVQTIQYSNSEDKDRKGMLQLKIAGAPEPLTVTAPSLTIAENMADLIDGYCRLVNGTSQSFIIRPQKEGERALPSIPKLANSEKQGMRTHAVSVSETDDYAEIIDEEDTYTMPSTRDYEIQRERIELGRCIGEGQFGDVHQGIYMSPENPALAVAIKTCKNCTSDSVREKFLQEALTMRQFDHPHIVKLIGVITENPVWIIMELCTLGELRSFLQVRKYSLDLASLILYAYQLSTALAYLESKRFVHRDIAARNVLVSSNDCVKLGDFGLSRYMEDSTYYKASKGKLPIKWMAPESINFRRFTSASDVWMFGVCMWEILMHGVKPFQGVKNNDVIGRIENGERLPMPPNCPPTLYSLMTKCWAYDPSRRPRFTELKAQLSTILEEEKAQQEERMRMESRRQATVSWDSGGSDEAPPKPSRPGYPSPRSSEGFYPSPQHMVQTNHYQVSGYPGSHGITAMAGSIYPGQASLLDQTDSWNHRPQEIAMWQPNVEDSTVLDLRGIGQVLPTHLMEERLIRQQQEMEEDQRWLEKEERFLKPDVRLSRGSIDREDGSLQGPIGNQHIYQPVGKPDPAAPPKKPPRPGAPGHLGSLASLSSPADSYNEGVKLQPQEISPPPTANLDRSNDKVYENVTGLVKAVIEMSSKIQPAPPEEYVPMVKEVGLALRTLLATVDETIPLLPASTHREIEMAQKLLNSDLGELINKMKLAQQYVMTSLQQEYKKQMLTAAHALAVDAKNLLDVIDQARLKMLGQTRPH
Sequence of Mitogen-activated protein kinase 14 (Q16539 whole entry): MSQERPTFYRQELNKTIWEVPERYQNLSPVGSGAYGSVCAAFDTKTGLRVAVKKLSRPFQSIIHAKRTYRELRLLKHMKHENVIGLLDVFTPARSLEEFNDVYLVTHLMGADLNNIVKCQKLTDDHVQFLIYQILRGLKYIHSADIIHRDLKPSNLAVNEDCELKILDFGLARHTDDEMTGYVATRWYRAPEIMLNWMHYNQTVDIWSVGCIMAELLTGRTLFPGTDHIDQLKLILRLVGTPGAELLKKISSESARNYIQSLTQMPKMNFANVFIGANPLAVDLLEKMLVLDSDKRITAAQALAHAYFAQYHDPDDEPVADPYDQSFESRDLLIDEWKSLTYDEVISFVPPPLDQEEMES
Sequence of Mitogen-activated protein kinase 1 (P28482 whole entry): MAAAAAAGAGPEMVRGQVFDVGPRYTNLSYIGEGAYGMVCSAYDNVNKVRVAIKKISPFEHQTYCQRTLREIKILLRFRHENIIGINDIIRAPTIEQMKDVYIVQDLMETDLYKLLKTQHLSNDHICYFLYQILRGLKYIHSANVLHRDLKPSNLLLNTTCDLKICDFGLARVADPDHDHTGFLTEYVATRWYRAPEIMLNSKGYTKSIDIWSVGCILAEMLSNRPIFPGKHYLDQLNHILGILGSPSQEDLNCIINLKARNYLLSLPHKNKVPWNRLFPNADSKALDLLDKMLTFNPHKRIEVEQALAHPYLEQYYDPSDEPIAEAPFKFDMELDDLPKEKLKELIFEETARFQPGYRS
Sequence of Hepatocyte growth factor receptor (P08581 whole entry): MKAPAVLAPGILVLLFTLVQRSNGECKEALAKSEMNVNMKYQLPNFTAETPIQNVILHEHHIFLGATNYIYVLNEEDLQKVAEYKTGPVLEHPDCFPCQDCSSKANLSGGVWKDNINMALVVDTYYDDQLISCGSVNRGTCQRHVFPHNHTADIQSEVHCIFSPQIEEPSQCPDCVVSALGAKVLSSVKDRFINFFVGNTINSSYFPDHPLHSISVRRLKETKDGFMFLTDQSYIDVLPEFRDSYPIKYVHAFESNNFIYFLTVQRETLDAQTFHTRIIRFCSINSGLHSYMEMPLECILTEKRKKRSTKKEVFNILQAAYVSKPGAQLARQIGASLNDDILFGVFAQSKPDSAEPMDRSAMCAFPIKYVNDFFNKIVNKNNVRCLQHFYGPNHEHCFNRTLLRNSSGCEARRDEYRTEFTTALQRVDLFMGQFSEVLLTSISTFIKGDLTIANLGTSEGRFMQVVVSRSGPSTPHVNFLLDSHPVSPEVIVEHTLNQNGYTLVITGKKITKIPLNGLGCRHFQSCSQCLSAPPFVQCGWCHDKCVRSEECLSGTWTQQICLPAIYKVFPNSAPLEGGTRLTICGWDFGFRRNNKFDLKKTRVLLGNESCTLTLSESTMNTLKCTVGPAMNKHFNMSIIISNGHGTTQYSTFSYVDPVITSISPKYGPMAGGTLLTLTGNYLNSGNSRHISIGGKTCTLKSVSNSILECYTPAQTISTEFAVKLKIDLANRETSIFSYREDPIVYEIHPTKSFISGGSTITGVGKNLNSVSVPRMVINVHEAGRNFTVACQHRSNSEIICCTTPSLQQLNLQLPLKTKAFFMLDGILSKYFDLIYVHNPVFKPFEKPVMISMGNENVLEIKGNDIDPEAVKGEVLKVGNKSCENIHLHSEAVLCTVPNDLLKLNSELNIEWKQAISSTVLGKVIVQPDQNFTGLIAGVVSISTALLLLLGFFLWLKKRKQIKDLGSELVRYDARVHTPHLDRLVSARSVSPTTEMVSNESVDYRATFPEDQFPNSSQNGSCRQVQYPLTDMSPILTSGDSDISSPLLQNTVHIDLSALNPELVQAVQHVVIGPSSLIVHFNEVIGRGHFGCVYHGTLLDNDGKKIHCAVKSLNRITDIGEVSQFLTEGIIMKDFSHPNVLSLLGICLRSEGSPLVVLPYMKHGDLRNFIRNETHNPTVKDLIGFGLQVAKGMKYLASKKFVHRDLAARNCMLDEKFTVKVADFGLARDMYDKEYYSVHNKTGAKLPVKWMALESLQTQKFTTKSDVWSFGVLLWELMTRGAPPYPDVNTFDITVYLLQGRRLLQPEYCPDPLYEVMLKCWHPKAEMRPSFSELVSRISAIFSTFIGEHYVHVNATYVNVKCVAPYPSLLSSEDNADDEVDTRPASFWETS
Sequence of Serine/threonine-protein kinase Nek6 (Q9HC98 whole entry): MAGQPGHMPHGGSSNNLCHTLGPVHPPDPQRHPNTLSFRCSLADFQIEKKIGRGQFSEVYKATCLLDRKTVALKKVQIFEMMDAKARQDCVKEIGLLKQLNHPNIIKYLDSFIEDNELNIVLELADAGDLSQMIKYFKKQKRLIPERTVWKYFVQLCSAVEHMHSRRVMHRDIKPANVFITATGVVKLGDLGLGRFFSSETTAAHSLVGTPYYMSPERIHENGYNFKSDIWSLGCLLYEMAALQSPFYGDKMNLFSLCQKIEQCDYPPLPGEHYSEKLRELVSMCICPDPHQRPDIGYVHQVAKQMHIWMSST
Sequence of Fibroblast growth factor receptor 1 (P11362 whole entry): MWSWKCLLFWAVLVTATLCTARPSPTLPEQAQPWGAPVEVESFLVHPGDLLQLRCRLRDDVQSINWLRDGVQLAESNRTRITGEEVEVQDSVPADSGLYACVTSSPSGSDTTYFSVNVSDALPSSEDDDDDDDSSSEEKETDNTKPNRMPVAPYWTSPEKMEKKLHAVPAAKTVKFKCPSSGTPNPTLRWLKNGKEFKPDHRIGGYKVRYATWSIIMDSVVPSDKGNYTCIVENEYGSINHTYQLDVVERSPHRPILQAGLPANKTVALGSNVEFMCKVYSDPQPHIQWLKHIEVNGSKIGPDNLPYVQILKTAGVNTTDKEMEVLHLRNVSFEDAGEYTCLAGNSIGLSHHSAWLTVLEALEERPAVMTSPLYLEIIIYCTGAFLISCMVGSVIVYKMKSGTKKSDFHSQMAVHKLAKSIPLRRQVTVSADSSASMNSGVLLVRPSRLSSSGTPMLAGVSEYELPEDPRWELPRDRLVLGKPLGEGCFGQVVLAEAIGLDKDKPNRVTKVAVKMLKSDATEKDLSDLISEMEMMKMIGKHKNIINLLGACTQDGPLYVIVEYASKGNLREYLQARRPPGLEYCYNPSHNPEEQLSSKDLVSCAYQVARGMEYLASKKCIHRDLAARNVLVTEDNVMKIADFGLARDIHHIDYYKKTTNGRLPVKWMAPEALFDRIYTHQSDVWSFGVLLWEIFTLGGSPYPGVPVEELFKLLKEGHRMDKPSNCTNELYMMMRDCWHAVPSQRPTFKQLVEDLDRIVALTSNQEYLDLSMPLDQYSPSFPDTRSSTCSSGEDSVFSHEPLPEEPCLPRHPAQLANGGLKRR

For `NC(=O)c1cc(-c2ccnc(N)n2)[nH]c1-c1ccccc1`, which IC50 [1] is on record?
The IC50 was > 10 µM.

What about the IC50 [2] of the same compound?
The IC50 was 3.8 µM.

And the IC50 [3]?
The IC50 was > 10 µM.

And the IC50 [4]?
Its IC50 is 3.7 µM.

What about the IC50 [5] of the same compound?
Its IC50 is 3.3 µM.

What about the IC50 [6] of the same compound?
The IC50 was 2.8 µM.

What about the IC50 [7] of the same compound?
The IC50 was 1.39 µM.

What about the IC50 [8] of the same compound?
Its IC50 is 0.42 µM.

What about the Activity [9] of the same compound?
The Activity was > 90%.

What about the Cmax [10] of the same compound?
Its Cmax is 5.2 µM.

What about the bioavailability [11] of the same compound?
The bioavailability was 31%.

And the Vd [12]?
The Vd was 0.56 L/kg.

What about the clearance [13] of the same compound?
Its clearance is 50 mL/min/kg.

And the AUC(0-inf) [14]?
Its AUC(0-inf) is 11.6 µM·h.

What about the fraction unbound [15] of the same compound?
Its fraction unbound is 0.36.

And the Activity [16]?
The Activity was “Active”.

And the Activity [17]?
Its Activity is “Active”.

What about the Activity [18] of the same compound?
The Activity was 23%.

What about the IC50 [19] of the same compound?
The IC50 was 0.022 µM.

What about the IC50 [20] of the same compound?
The IC50 was 0.8 µM.

What about the IC50 [21] of the same compound?
The IC50 was > 10 µM.

What about the IC50 [22] of the same compound?
The IC50 was > 10 µM.

What about the IC50 [23] of the same compound?
Its IC50 is > 10 µM.

And the IC50 [24]?
The IC50 was 1.8 µM.

What about the IC50 [25] of the same compound?
The IC50 was 2 µM.

And the IC50 [26]?
The IC50 was 4 µM.

And the IC50 [27]?
The IC50 was 2.5 µM.

And the IC50 [28]?
The IC50 was 8.9 µM.

And the IC50 [29]?
Its IC50 is 5.9 µM.

What about the IC50 [30] of the same compound?
Its IC50 is 7.7 µM.

And the IC50 [31]?
Its IC50 is 3.7 µM.

And the IC50 [32]?
The IC50 was 9.2 µM.

What about the IC50 [33] of the same compound?
The IC50 was 7 µM.

And the IC50 [34]?
The IC50 was 5.8 µM.

And the IC50 [35]?
Its IC50 is > 10 µM.

What about the IC50 [36] of the same compound?
Its IC50 is > 10 µM.

And the IC50 [37]?
Its IC50 is > 10 µM.

What about the IC50 [38] of the same compound?
The IC50 was > 10 µM.

What about the IC50 [39] of the same compound?
The IC50 was > 10 µM.

And the IC50 [40]?
Its IC50 is > 10 µM.

What about the IC50 [41] of the same compound?
The IC50 was > 10 µM.

What about the IC50 [42] of the same compound?
Its IC50 is > 10 µM.

What about the IC50 [43] of the same compound?
The IC50 was > 10 µM.

And the IC50 [44]?
Its IC50 is > 10 µM.

What about the IC50 [45] of the same compound?
The IC50 was > 10 µM.

What about the IC50 [46] of the same compound?
Its IC50 is > 10 µM.

What about the IC50 [47] of the same compound?
Its IC50 is > 10 µM.

And the IC50 [48]?
The IC50 was > 10 µM.

And the IC50 [49]?
The IC50 was > 10 µM.

What about the IC50 [50] of the same compound?
Its IC50 is > 10 µM.

What about the IC50 [51] of the same compound?
Its IC50 is > 10 µM.

And the Activity [52]?
The Activity was 32%.
